Test results published in patent publication US9868763B2, “Modulators of protease activated receptors” (The University of Queensland, priority 2011, dated 2018).
Entries after “also recorded” stand apart in the source; their conditions may differ.

Columns and labels:
[1] = Pharmacokinetics, single oral dose; assay type: in vivo, Wistar rat
Procedure: Male Wistar rats were surgically implanted with a jugular vein catheter. Blood samples (heparinised) were collected from the catheter of an unanaesthetised, unrestrained rat, 5 min prior to PAR2 antagonist 52 administration (10 mg/kg p.o.) and 30 min, 1-6, 8 and 24 h post-administration. Rats not implanted with a catheter were given PAR2 antagonist 52 (10 mg/kg/day p.o.) four days consecutively (n=6). On the fifth day, plasma, cerebrospinal fluid (CSF), paw tissue and intraperitoneal adipose were collected for LCMS analysis.

Water solubility = assay type: physicochemical
[2] = test system: collagen-induced arthritis; assay: Collagen-induced arthritis; assay type: in vivo, Wistar rat
Procedure: Protocols were based on those described (Lin H S et al., Br J Pharmacol 2007, 150(7):862-72; Nishikawa M et al., Arthritis Rheum 2003, 48(9):2670-81). Female Wistar rats (200-250 g, n′ 14) were immunised on Day 0 with Bovine nasal collagen (200 μg, 50:50 0.05 M acetic acid and Freund's incomplete adjuvant, s.c. tail base). Sham animals received vehicle only (no collagen; 50:50 0.05 M acetic acid and Freund's incomplete adjuvant, s.c. tail base). Boosters of the same dose were given on Day 7. Daily oral dosage of PAR-2 antagonist 52 (10 mg/kg in olive oil, 500 μL, p.o. weight adjusted) or olive oil vehicle (arthritic control, and sham) began on Day 7. Paw thickness and width (as above), body weight, disease activity score and mechanical nociceptive thresholds were measured every second day from Day 10-28.
Disease Activity Index (DAI) and mechanical hyperalgesia were assessed and qualitatively scored 0 to 4+. The DAI is based on multiple characteristic disease pathologies, incorporating changes in mobility, inflammation and discomfort/pain (maximum total score of 18). Plantar mechanical nociceptive thresholds were measured using Semmes Weinstein Von Frey Anaesthesiometers (Touch Test Sensory Evaluators, Stoelting, Ill., USA).
Day 28 all rats were euthanised and hind paws fixed in 4% paraformaldehyde, decalcified and embedded in paraffin wax and cut at […]. Sections were stained with H&E for general tissue architecture, with Masson's Trichrome for collagen loss or with alcian blue/safranin-O for mast cells (42). Tissue macrophages were labeled using ED1 monoclonal antibody (for immature rat macrophage/monocytes, Serotec) using standard IHC techniques. Microscopic analysis and cell counts were made from multiple (>6) images/paw with aid of ImageJ 1.42q software.

PAR2 = target: T1, PAR2 (Homo sapiens, UniProt P55085); assay: PAR2-induced intracellular Ca2+ release in human macrophages; assay type: cell-based; design: endogenous in cells
T1 sequence (P55085 26-397): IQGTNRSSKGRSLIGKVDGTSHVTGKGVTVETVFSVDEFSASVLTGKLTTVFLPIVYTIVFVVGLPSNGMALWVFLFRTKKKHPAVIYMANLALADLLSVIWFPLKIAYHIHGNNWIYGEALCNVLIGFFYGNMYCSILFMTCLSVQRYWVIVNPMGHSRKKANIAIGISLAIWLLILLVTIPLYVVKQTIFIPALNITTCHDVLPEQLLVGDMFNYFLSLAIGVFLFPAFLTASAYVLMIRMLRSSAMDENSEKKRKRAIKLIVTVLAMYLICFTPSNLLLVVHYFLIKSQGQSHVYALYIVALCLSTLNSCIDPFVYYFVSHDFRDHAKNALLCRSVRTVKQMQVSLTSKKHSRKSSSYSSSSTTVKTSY
From the text: Peripheral blood mononuclear cells were isolated from buffy coat (Australian Red Cross, Kelvin Grove, QLD) using Ficoll-paque density centrifugation (GE Healthcare Bio-Science, Uppsala, Sweden). CD14^+ monocytes were positively selected using CD14^+ MACS magnetic beads (Miltenyi Biotech, Auburn, Calif., USA). Monocytes were differentiated to HMDM in complete media using M-CSF (PeptroTech Inc, Rocky Hill, N.J., USA). HMDM were supplemented with 50% fresh complete medium containing CSF-1 on Day 5 after seeding and re-plated for use on Day 7.

[3] = male, Wistar, rat, 10 mg/kg oral gavage, plasma
[4] = alcian blue/safranin-O staining

Structure (SMILES): CC[C@H](C)[C@@H](NC(=O)[C@H](CC1CCCCC1)NC(=O)c1ccno1)C(=O)N1CCC2(C=Cc3ccccc32)CC1 [Compound 52]
- presence in plasma after 24 h ([1]; 10 mg/kg oral gavage): No PAR2 antagonist 52 was present
- concentration at 3 h ([1]; Wistar, rat, paw tissue homogenate, po, 3 h post administration, 10 mg/kg p.o., LCMS/MS, read-out: concentration in paw tissue homogenates): 35 nM
- bioavailability ([1]; male, Wistar, rat, plasma, po, 10 mg/kg, 10 mg/kg p.o., from AUC 0-6 h, read-out: oral bioavailability F): 55%
- Cmax [1, 3]: 1700 ± 400 nM
- Tmax [1, 3]: 4 ± 0.6 h
- half-life [1, 3]: 1.13 ± 0.13 h
- water solubility (Water solubility): not water soluble enough to administer i.v.
- collagen-induced rat arthritis ([2]; 10 mg/kg/day p.o.): attenuated collagen-induced rat arthritis
- lowered mechanical nociceptive threshold (mechanical hyperalgesia) ([2]; 10 mg/kg/day p.o., Day 28): prevented the mechanical hyperalgaesia; also recorded: removed
- maximal hind paw swelling ([2]; 10 mg/kg/day p.o., Day 28, change from baseline): 25±9%
- maximal DAI (disease activity index) ([2]; 10 mg/kg/day p.o., Day 28, maximum total score 18): 1.6±0.9
- animals affected by arthritic signs ([2]; 10 mg/kg/day p.o., by Day 28): 60%
- degranulated mast cells of all mast cells [2, 4]: less than 5%
- inactive mast cells of all mast cells [2, 4]: ~80%
- collagen loss (Masson's Trichrome) ([2]; compared to CIA-controls): significantly reduced collagen loss
- histopathological changes (H&E, tibia-talus joints) ([2]; daily administration): almost completely prevented
- arthritic-like up regulation of ED1-macrophages ([2]; rat, in vivo): prevented
- PAR2 antagonist potency relative to ENMD-1068 (PAR2): 1000 fold
